Data: ChEMBL document CHEMBL1240295, “Specificity and mechanism of action of some commonly used protein kinase inhibitors” (Biochem J, 2000)

Columns and labels:
[1] = molecular target: Casein kinase II (Homo sapiens) (UniProt P67870+P68400+P19784); details: Sf9, at 10 µM
Description: Inhibition of His-tagged human CK2 expressed in Sf9 cells at 10 uM

Rattus norvegicus = organism: Rattus norvegicus; details: at 10 µM
Description: Inhibition of rat liver AMPK at 10 uM

[2] = molecular target: Mitogen-activated protein kinase 11 (Homo sapiens) (UniProt Q15759); details: at 10 µM
Description: Inhibition of Gst-tagged human SAPK2b/p38--beta-2 expressed in Escherichia coli at 10 uM

[3] = molecular target: T1, MAP kinase-activated protein kinase 5 (Homo sapiens) (UniProt Q8IW41); details: Sf9, at 10 µM
T1 sequence (whole entry): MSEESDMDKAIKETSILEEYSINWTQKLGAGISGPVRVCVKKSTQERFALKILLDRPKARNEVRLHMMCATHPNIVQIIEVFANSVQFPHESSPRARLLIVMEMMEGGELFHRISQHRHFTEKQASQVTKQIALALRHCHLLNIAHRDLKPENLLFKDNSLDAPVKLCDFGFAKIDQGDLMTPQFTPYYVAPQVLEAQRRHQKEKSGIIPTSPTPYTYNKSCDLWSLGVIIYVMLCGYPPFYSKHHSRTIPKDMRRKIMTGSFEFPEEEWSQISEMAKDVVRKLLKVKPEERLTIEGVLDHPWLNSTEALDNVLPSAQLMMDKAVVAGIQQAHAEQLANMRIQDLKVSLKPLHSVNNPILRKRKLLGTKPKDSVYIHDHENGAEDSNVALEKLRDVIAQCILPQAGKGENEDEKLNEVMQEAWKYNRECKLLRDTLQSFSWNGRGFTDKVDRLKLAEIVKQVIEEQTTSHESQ
Description: Inhibition of His-tagged human PRAK expressed in Sf9 cells at 10 uM

[4] = molecular target: 3-phosphoinositide-dependent protein kinase 1 (Homo sapiens) (UniProt O15530); details: Sf21, at 10 µM
Sequence of 3-phosphoinositide-dependent protein kinase 1 (Homo sapiens) (O15530 whole entry, looked up): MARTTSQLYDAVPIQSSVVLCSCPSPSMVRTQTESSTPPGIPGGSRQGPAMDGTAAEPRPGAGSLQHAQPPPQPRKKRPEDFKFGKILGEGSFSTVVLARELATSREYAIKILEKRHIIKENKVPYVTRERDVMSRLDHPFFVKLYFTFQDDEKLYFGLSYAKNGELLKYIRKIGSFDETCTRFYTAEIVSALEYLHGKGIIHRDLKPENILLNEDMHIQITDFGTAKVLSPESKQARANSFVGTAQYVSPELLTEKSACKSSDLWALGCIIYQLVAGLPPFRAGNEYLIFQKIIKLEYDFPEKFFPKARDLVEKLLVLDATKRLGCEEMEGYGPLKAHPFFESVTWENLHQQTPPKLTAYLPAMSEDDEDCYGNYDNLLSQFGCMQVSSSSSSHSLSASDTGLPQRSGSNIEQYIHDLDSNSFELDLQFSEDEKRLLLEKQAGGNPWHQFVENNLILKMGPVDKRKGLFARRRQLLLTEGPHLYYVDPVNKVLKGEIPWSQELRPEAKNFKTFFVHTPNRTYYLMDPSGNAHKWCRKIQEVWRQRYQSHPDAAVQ

[5] = molecular target: T2, Mitogen-activated protein kinase 12 (Homo sapiens) (UniProt P53778); details: at 10 µM
T2 sequence (whole entry): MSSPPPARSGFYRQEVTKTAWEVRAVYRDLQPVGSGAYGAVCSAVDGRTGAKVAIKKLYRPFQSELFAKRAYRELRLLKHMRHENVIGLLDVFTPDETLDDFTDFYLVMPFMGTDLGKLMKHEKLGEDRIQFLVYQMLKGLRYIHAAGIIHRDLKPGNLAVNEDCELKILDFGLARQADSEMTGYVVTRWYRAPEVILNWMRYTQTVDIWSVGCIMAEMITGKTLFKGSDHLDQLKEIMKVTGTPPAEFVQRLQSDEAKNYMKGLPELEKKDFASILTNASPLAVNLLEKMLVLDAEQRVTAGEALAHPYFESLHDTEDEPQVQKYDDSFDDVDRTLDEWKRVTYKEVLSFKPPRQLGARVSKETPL
Description: Inhibition of Gst-tagged human SAPK3/p38gamma expressed in Escherichia coli at 10 uM

Oryctolagus cuniculus [6] = organism: Oryctolagus cuniculus; details: Muscle tissue, at 10 µM
Description: Inhibition of PHK from rabbit skeletal muscle at 10 uM

Bos taurus = organism: Bos taurus; details: at 10 µM
Description: Inhibition of bovine heart PKA at 10 uM

[7] = molecular target: T3, Serine/threonine-protein kinase Chk1 (Homo sapiens) (UniProt O14757); details: at 10 µM
T3 sequence (whole entry): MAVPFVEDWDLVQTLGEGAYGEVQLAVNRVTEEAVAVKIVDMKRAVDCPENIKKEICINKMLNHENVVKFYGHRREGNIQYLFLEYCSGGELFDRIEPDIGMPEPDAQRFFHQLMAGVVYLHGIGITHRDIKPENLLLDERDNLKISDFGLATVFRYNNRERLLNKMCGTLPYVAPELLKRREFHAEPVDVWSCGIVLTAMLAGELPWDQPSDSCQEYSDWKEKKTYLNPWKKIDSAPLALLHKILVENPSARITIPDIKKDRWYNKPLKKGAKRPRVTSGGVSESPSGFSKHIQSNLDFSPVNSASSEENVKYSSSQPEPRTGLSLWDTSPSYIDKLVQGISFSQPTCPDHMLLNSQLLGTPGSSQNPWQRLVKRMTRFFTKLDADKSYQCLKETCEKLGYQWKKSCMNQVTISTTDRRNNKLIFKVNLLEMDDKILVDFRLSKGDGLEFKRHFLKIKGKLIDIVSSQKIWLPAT
Description: Inhibition of His-tagged human CHK1 expressed in Escherichia coli at 10 uM

[8] = molecular target: Tyrosine-protein kinase Lck (Homo sapiens) (UniProt P06239); details: Sf9, at 10 µM
Sequence of Tyrosine-protein kinase Lck (Homo sapiens) (P06239 2-509 limits assumed): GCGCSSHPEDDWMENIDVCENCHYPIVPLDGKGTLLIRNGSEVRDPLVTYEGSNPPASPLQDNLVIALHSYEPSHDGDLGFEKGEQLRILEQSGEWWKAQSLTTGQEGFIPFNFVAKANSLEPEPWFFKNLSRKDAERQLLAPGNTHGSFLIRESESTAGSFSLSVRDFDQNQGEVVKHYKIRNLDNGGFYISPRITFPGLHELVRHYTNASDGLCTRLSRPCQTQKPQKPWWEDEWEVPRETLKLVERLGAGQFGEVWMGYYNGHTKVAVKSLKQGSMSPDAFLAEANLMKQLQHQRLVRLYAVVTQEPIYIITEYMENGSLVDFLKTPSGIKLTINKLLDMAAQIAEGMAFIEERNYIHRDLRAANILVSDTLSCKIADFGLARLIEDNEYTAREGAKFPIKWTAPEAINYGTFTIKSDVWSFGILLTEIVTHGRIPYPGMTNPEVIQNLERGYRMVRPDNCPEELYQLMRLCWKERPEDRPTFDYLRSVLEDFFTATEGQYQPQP
Description: Inhibition of His-tagged human LCK expressed in Sf9 cells at 10 uM

[9] = molecular target: Rho-associated protein kinase 2 (Rattus norvegicus) (UniProt Q62868); details: Sf9, at 10 µM
Description: Inhibition of rat ROCK2 expressed in Sf9 cells at 10 uM

[10] = molecular target: T4, Serine/threonine-protein kinase Sgk1 (Homo sapiens) (UniProt O00141); details: Sf9, at 10 µM
T4 sequence (whole entry): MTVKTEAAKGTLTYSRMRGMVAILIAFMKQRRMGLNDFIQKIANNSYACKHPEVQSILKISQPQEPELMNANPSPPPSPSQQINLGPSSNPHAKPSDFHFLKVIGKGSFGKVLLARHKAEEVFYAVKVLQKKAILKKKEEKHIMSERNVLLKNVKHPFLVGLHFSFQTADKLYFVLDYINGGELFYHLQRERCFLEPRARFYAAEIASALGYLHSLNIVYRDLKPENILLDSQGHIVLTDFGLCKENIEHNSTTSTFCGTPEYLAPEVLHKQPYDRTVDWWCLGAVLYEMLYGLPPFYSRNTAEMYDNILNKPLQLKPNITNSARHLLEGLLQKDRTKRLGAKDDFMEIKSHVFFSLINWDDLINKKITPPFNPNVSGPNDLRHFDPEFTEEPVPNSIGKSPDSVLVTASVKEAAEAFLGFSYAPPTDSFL
Description: Inhibition of His-tagged human SGK expressed in Sf9 cells at 10 uM

[11] = molecular target: Protein kinase C alpha type (Homo sapiens, UniProt P17252); details: at 10 µM
Description: Inhibition of His-tagged human PKCalpha expressed in Escherichia coli at 10 uM

[12] = molecular target: Ribosomal protein S6 kinase beta-1 (Homo sapiens, UniProt P23443); details: at 10 µM
Sequence of Ribosomal protein S6 kinase beta-1 (P23443 whole entry, looked up): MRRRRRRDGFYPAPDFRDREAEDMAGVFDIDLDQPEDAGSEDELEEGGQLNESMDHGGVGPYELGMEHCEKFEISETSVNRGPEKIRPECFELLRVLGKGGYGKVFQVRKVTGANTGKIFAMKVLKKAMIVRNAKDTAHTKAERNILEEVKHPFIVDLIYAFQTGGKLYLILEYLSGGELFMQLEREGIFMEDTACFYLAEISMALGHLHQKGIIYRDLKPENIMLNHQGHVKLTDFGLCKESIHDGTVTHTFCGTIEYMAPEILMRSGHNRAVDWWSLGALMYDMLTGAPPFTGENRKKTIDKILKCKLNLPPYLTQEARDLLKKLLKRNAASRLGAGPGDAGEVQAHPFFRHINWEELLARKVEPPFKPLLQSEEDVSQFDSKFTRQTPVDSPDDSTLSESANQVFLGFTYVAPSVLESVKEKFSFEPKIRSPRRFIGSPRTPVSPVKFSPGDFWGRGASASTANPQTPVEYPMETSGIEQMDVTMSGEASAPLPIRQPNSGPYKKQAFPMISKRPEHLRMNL
Description: Inhibition of His-tagged human S6K1 expressed in Escherichia coli at 10 uM

[13] = molecular target: Mitogen-activated protein kinase 8 (Homo sapiens) (UniProt P45983); details: at 10 µM
Sequence of Mitogen-activated protein kinase 8 (Homo sapiens) (P45983 whole entry): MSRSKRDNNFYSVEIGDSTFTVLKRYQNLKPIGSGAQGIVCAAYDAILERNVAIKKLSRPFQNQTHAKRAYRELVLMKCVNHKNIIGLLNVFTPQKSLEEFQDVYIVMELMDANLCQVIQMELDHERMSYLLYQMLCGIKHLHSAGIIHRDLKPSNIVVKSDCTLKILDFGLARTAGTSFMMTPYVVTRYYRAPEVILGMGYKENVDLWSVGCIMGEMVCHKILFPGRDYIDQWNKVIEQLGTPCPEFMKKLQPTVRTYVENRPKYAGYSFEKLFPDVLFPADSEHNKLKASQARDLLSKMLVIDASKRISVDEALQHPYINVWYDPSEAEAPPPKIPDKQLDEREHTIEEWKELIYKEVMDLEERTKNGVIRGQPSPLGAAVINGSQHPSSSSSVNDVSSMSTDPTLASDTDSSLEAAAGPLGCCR
Description: Inhibition of Gst-tagged human JNK1a1 expressed in Escherichia coli at 10 uM

[14] = molecular target: RAC-alpha serine/threonine-protein kinase (Homo sapiens) (UniProt P31749); details: Sf9, at 10 µM
Description: Inhibition of human PKBalpha expressed in SF9 cells at 10 uM

[15] = molecular target: T5, Mitogen-activated protein kinase 13 (Homo sapiens) (UniProt O15264); details: at 10 µM
T5 sequence (whole entry): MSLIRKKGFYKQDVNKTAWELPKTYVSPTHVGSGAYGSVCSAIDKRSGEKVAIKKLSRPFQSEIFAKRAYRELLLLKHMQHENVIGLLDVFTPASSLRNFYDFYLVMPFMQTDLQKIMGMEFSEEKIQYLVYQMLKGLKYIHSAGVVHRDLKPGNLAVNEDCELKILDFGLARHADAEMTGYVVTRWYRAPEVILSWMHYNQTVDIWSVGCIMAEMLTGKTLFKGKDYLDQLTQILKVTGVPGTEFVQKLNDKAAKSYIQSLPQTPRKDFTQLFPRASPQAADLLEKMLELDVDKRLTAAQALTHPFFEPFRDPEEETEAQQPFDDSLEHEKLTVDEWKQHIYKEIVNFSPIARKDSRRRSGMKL
Description: Inhibition of Gst-tagged human SAPK4/p38delta expressed in Escherichia coli at 10 uM

Oryctolagus cuniculus [16] = organism: Oryctolagus cuniculus; details: Muscle tissue, at 10 µM; remark: listed apart in the source
Description: Inhibition of MAPKAPK1b from rabbit skeletal muscle at 10 uM

Oryctolagus cuniculus [17] = organism: Oryctolagus cuniculus; details: at 10 µM
Description: Inhibition of rabbit MKK1 expressed in Escherichia coli at 10 uM

[18] = Inhibition of bovine heart PKA; design: species or system Bos taurus
[19] = molecular target: Ribosomal protein S6 kinase alpha-5 (Homo sapiens, UniProt O75582); details: Sf9, at 10 µM
Sequence of Ribosomal protein S6 kinase alpha-5 (O75582 whole entry, looked up): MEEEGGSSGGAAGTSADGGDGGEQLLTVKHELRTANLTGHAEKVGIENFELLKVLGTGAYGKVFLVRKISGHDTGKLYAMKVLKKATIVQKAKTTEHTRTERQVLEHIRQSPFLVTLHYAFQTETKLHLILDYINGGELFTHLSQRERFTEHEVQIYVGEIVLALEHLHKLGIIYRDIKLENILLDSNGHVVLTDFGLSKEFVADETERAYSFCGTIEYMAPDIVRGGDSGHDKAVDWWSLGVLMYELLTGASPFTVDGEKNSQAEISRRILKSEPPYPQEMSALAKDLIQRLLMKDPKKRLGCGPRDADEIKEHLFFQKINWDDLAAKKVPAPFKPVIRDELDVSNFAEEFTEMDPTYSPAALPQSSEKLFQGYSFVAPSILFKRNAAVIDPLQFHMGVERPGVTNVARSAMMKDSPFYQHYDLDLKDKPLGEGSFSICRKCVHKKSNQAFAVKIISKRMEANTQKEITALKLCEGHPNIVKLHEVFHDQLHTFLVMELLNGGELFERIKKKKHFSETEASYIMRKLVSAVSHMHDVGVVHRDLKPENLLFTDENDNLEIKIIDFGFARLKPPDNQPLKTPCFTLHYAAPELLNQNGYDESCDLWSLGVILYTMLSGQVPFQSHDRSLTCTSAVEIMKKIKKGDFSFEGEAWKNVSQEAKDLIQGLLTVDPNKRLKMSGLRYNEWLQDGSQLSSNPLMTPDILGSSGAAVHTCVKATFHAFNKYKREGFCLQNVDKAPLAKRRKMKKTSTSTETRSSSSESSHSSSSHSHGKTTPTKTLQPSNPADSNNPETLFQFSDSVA
Description: Inhibition of His-tagged human MSK1 expressed in Sf9 cells at 10 uM

[20] = molecular target: Mitogen-activated protein kinase 14 (Homo sapiens) (UniProt Q16539); details: at 10 µM
Sequence of Mitogen-activated protein kinase 14 (Homo sapiens) (Q16539 whole entry): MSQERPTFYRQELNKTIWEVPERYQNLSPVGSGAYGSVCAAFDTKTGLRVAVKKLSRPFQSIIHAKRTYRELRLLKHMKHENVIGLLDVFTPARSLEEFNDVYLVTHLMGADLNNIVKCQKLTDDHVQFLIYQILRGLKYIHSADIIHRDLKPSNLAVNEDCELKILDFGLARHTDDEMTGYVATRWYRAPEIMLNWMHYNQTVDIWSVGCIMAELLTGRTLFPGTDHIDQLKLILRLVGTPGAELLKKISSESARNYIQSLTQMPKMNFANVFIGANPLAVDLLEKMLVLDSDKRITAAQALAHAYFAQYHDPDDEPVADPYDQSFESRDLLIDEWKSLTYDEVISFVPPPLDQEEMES
Description: Inhibition of Gst-tagged human SAPK2a/p38 expressed in Escherichia coli at 10 uM

[21] = molecular target: MAP kinase-activated protein kinase 2 (Homo sapiens, UniProt P49137); details: at 10 µM
Sequence of MAP kinase-activated protein kinase 2 (P49137 whole entry, looked up): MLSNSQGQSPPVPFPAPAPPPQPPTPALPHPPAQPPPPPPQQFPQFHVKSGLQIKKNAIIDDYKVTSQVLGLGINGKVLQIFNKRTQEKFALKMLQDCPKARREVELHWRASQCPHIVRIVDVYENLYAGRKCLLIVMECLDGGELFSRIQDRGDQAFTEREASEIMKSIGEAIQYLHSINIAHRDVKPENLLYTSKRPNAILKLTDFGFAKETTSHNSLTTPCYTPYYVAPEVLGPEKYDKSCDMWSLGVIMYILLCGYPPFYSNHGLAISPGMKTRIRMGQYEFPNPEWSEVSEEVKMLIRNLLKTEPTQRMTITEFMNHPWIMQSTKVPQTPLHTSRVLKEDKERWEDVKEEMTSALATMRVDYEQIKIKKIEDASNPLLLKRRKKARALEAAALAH
Description: Inhibition of Gst-tagged human MAPKAPK2 expressed in Escherichia coli at 10 uM

[22] = molecular target: Mitogen-activated protein kinase 1 (Homo sapiens) (UniProt P28482); details: at 10 µM
Sequence of Mitogen-activated protein kinase 1 (Homo sapiens) (P28482 whole entry): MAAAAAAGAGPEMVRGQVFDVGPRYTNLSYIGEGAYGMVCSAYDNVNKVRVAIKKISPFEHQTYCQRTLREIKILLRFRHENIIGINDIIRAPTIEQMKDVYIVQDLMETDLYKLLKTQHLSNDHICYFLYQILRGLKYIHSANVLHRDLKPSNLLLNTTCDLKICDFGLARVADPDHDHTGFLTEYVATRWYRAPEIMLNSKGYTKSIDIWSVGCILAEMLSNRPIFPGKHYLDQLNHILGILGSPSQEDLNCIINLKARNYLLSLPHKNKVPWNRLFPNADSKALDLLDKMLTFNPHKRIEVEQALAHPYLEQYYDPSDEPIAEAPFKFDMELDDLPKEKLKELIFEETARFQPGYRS
Description: Inhibition of Gst-tagged human MAPK2/ERK2 expressed in Escherichia coli at 10 uM

[23] = molecular target: Glycogen synthase kinase-3 beta (Homo sapiens, UniProt P49841); details: Sf21, at 10 µM
Sequence of Glycogen synthase kinase-3 beta (P49841 whole entry, looked up): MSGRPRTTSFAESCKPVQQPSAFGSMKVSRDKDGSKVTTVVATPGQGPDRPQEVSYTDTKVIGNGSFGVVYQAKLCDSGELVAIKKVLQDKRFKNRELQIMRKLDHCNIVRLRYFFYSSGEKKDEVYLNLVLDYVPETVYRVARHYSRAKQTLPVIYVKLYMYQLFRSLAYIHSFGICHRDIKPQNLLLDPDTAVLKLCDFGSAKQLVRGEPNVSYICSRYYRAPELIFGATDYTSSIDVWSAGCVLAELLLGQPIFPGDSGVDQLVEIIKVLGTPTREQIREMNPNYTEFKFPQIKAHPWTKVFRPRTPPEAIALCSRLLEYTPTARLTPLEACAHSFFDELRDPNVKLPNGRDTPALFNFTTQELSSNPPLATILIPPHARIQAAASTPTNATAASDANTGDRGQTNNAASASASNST
Description: Inhibition of His-tagged human GSK3b expressed in Sf21 cells at 10 uM

[24] = Inhibition of PHK from rabbit skeletal muscle; assay type: tissue-based, Oryctolagus cuniculus, Muscle tissue

Sequence of Mitogen-activated protein kinase 11 (Homo sapiens) (Q15759 whole entry): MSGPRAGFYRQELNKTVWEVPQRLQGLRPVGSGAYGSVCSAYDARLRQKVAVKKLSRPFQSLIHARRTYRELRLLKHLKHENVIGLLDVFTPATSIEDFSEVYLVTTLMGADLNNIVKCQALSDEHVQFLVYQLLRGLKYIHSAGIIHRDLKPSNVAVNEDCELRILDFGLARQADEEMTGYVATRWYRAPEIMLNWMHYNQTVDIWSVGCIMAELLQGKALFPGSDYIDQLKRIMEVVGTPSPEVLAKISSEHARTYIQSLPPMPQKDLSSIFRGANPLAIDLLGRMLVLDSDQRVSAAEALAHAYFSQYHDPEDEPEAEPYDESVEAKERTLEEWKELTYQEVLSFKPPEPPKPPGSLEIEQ

Work on `CCCCCCOC(=O)[C@@]1(O)C[C@H]2O[C@]1(C)n1c3ccccc3c3c4c(c5c6ccccc6n2c5c31)C(=O)NC4` yielded a residual activity [1] of 95%, a residual activity (Rattus norvegicus) of 22% and a residual activity [2] of 98%. The residual activity [3] was 58%, the residual activity [4] was 7% and the residual activity [5] was 95%. It also gave a level, % of control (Oryctolagus cuniculus [6]) of 0%, a residual activity (Bos taurus) of 39% and a residual activity [7] of 13%. It also gave a residual activity [8] of 46%, a residual activity [9] of 84% and a residual activity [10] of 29%. For the same compound, the residual activity [11] was 87%, the residual activity [12] was 66% and the residual activity [13] was 81%. It also gave a residual activity [14] of 36%, a residual activity [15] of 95% and a level, % of control (Oryctolagus cuniculus [16]) of 23%. It also gave a residual activity (Oryctolagus cuniculus [17]) of 20%, an IC50 [18] of 3.3 µM and a residual activity [19] of 39%. It also gave a residual activity [20] of 103%, a residual activity [21] of 62% and a residual activity [22] of 57%. For the same compound, the residual activity [23] was 39% and the IC50 [24] was 11 nM.
